Source: ChEMBL document CHEMBL4043274, “4-Hydroxy-2-pyridones: Discovery and evaluation of a novel class of antibacterial agents targeting DNA synthesis” (Bioorg Med Chem Lett, 2017)
Values after ≈ are worked out from the molar mass of the structure shown.

What was measured:
[1] = test system: Escherichia coli; assay: Antibacterial activity against wild-type Escherichia coli ATCC 25922 by CLSI M100-S17 protocol based method; assay type: functional
[2] = test system: Escherichia coli; assay: Antibacterial activity against quinolone resistant Escherichia coli SKM18 by CLSI M100-S17 protocol based method; assay type: functional
[3] = test system: Escherichia coli; assay: Antibacterial activity against Escherichia coli BAS849 by CLSI M100-S17 protocol based method; assay type: functional
[4] = test system: Escherichia coli; assay: Antibacterial activity against wild-type Escherichia coli ATCC 25922 in presence of human serum albumin by CLSI M100-S17 protocol based method; assay type: functional
[5] = Selectivity ratio of MIC for wild-type Escherichia coli ATCC 25922 to MIC for Escherichia coli BAS849; assay type: functional
[6] = test system: Escherichia coli; assay: Ratio of MIC in presence to absence of HSA for wild-type Escherichia coli ATCC 25922; assay type: functional
[7] = test system: Acinetobacter baumannii; assay: Antibacterial activity against Acinetobacter baumannii ATCC BAA-747 by CLSI M100-S17 protocol based method; assay type: functional
[8] = test system: Klebsiella pneumoniae; assay: Antibacterial activity against Klebsiella pneumoniae ATCC 35657 by CLSI M100-S17 protocol based method; assay type: functional
[9] = Inhibition of DNA gyrase-A in Escherichia coli ATCC 25922 using relaxed pBR322 DNA as substrate after 30 mins by ethidium bromide staining based agarose gel electrophoresis method
[10] = Inhibition of Escherichia coli ATCC 25922 topoisomerase-4 ParC at 100 uM using kinetoplast DNA as substrate after 60 mins relative to control
[11] = test system: Escherichia coli; assay: Antibacterial activity against clinical isolates of Escherichia coli by broth microdilution assay; assay type: functional
[12] = test system: Staphylococcus aureus; assay: Antibacterial activity against multidrug resistant Staphylococcus aureus by broth microdilution assay; assay type: functional
[13] = test system: Rattus norvegicus; assay: Dose normalized AUC (0 to 24 hrs) in Sprague-Dawley rat at 5 mg/kg, iv administered as single dose; assay type: ADME, organism-based; details: in vivo
[14] = Terminal half life in Sprague-Dawley rat at 5 mg/kg, iv administered as single dose; assay type: ADME, organism-based; details: in vivo, read-out: beta t1/2 (converted)
[15] = Volume of distribution at steady state in Sprague-Dawley rat at 5 mg/kg, iv administered as single dose; assay type: ADME, organism-based; details: in vivo, read-out: Vdss
[16] = Oral bioavailability in Sprague-Dawley rat; assay type: ADME, organism-based; details: in vivo
[17] = Protein binding in mouse plasma; assay type: ADME, cell-free; details: read-out: PPB (converted)
[18] = test system: Escherichia coli; assay: Antibacterial activity against wild-type Escherichia coli ATCC 25922 infected in iv dosed CD-1 mouse assessed as mouse survival treated for 1 hr followed by reinfection with bacteria measured at 96 hrs post infection; assay type: functional; details: ATCC 25922, iv, read-out: PD50
[19] = test system: Rattus norvegicus; assay: Dose normalized AUC (0 to 24 hrs) in Sprague-Dawley rat at 10 mg/kg, iv administered as single dose; assay type: ADME, organism-based; details: in vivo
[20] = Terminal half life in Sprague-Dawley rat at 10 mg/kg, iv administered as single dose; assay type: ADME, organism-based; details: in vivo, read-out: beta t1/2 (converted)
[21] = Volume of distribution at steady state in Sprague-Dawley rat at 10 mg/kg, iv administered as single dose; assay type: ADME, organism-based; details: in vivo, read-out: Vdss
[22] = Selectivity ratio of MIC for quinolone resistant Escherichia coli SKM18 to MIC for wild-type Escherichia coli ATCC 25922; assay type: functional

Row | SMILES | MIC [1] [µg/mL] | MIC [2] [µg/mL] | MIC [3] [µg/mL] | MIC [4] [µg/mL] | Ratio [6] | further results
1 | CCc1c(-c2ccc(N3CCCC3)cc2)[nH]c(=O)c(C(=O)O)c1O | 1.6 (≈ 4.87 µM) | > 62.5 | 0.03 (≈ 0.0914 µM) | > 62.5 | >30 - 40 | Selectivity ratio [5]: > 50
2 | CCc1c(-c2ccc(OC)cc2)[nH]c(=O)c(C(=O)O)c1O | 7.8 (≈ 27 µM) | – | ≤ 0.2 | – | – | –
3 | CCc1c(-c2ccc(N(C)C)cc2C)[nH]c(=O)c(C(=O)O)c1O | > 12.5 | – | 6.3 (≈ 19.9 µM) | – | – | –
4 | CCc1c(-c2ccc(N3CCCCC3)cc2)[nH]c(=O)c(C(=O)O)c1O | > 62.5 | – | 0.39 (≈ 1.14 µM) | – | >30 | Selectivity ratio [5]: > 50
5 | CCc1c(-c2ccc(N3CCC(CNC)C3)cc2)[nH]c(=O)c(C(=O)O)c1O (stereo not drawn) | 1.6 (≈ 4.31 µM) | 7.8 (≈ 21 µM) | 0.39 (≈ 1.05 µM) | 6.3 | 4 - 8 | MIC [7]: 12.5 µg/mL (≈ 33.7 µM); MIC [8]: 6.3 µg/mL (≈ 17 µM)
6 | CCc1c(-c2ccc(N3C[C@@H]4[C@@H](N)[C@@H]4C3)cc2)[nH]c(=O)c(C(=O)O)c1O | 0.19 (≈ 0.535 µM) | 12.5 (≈ 35.2 µM) | 0.049 (≈ 0.138 µM) | 0.78 | – | IC50 [9]: 770 nM; IC50 [10]: 2400 nM; MIC [7]: 0.78 µg/mL (≈ 2.19 µM); MIC [8]: 0.39 µg/mL (≈ 1.1 µM); MIC50 [11]: 0.25 µg/mL (≈ 0.703 µM); MIC90 [11]: 8 µg/mL (≈ 22.5 µM); MIC [12]: 0.5 to 8 µg/mL (≈ 1.41 to 22.5 µM); MIC50 [12]: 1 µg/mL (≈ 2.81 µM); MIC90 [12]: 8 µg/mL (≈ 22.5 µM); AUC/dose [13]: 30.7 µg·h/mL; half-life [14]: 2.9 h; Vd [15]: 0.54 L/kg; bioavailability [16]: 17%; fraction unbound [17]: 0.12; ED50 [18]: 8 mg/kg
7 | CCc1c(-c2ccc(N3CC4CCCNC4C3)cc2)[nH]c(=O)c(C(=O)O)c1O (stereo not drawn) | 0.78 (≈ 2.03 µM) | 3.1 (≈ 8.08 µM) | 0.19 (≈ 0.496 µM) | 1.6 | <4 | IC50 [10]: 15700 nM; MIC [7]: 1.6 µg/mL (≈ 4.17 µM); MIC [8]: 0.8 µg/mL (≈ 2.09 µM); MIC [11]: 0.125 to 2 µg/mL (≈ 0.326 to 5.22 µM); MIC50 [11]: 0.5 µg/mL (≈ 1.3 µM); MIC90 [11]: 2 µg/mL (≈ 5.22 µM); MIC [12]: 0.125 to 16 µg/mL (≈ 0.326 to 41.7 µM); MIC50 [12]: 0.5 µg/mL (≈ 1.3 µM); MIC90 [12]: 8 µg/mL (≈ 20.9 µM); AUC/dose [19]: 13.9 µg·h/mL; half-life [20]: 3.9 h; Vd [21]: 2.9 L/kg; bioavailability [16]: 8%; fraction unbound [17]: 0.27; ED50 [18]: > 20 mg/kg
8 | CCc1c(-c2ccc(N3C[C@@H]4[C@H](C3)[C@H]4N(C)C)cc2)[nH]c(=O)c(C(=O)O)c1O | 6.3 (≈ 16.4 µM) | 12.5 (≈ 32.6 µM) | 0.25 (≈ 0.652 µM) | > 12.5 | 4 - 8 | MIC [7]: > 12.5 µg/mL
9 | CCc1cc(C(=O)O)c(=O)[nH]c1-c1ccc(N(C)C)cc1 | 0.78 (≈ 2.72 µM) | > 62.5 | 0.03 (≈ 0.105 µM) | – | – | –
10 | CCc1c(-c2ccc(N3CCNCC3)cc2)[nH]c(=O)c(C(=O)O)c1O | 6.3 (≈ 18.3 µM) | 62.5 (≈ 182 µM) | 3.1 (≈ 9.03 µM) | 15.6 | <3 | –
11 | CCOC(=O)c1c(O)c(CC)c(-c2ccc(N(C)C)cc2)[nH]c1=O | > 12.5 | – | > 12.5 | – | – | –
12 | CCc1c(-c2ccc(N3CCC(N(C)C)C3)cc2)[nH]c(=O)c(C(=O)O)c1O (stereo not drawn) | 0.78 (≈ 2.1 µM) | 3.1 (≈ 8.35 µM) | 0.19 (≈ 0.512 µM) | 3.1 | <4 | MIC [7]: 1.6 µg/mL (≈ 4.31 µM); MIC [8]: 1.6 µg/mL (≈ 4.31 µM); Selectivity ratio [22]: < 4
13 | CCc1c(-c2ccc(N3CCC(C(C)(C)N)C3)cc2)[nH]c(=O)c(C(=O)O)c1O (stereo not drawn) | 3.1 (≈ 8.04 µM) | 0.78 (≈ 2.02 µM) | 0.78 (≈ 2.02 µM) | 12.5 | 4 - 8 | MIC [7]: > 12.5 µg/mL; MIC [8]: 6.3 µg/mL (≈ 16.3 µM)
14 | CCc1cc(C(=O)O)c(=O)n(C)c1-c1ccc(N(C)C)cc1 | > 62.5 | > 62.5 | 1.6 (≈ 5.33 µM) | – | – | –
15 | CCc1c(-c2ccc(N(C)C)c(C)c2)[nH]c(=O)c(C(=O)O)c1O | > 12.5 | – | 1.6 (≈ 5.06 µM) | – | – | –
16 | CCc1c(-c2ccc(Cl)cc2)[nH]c(=O)c(C(=O)O)c1O | > 12.5 | – | 1.6 (≈ 5.45 µM) | – | – | –
17 | O=C(O)c1cn(C2CC2)c2cc(N3CCNCC3)c(F)cc2c1=O [CIPROFLOXACIN] | – | – | – | – | – | MIC [12]: 0.125 to 64 µg/mL (≈ 0.377 to 193 µM); MIC50 [12]: 64 µg/mL (≈ 193 µM); MIC90 [12]: > 64 µg/mL
18 | CCc1c(-c2ccc(N(CC)CC)cc2)[nH]c(=O)c(C(=O)O)c1O | > 62.5 | – | 0.24 (≈ 0.726 µM) | – | – | Selectivity ratio [5]: > 50
19 | CCc1c(-c2ccc(C)cc2)[nH]c(=O)c(C(=O)O)c1O | > 12.5 | – | 0.78 (≈ 2.85 µM) | – | – | –
20 | Cc1c(-c2ccc(N(C)C)cc2)[nH]c(=O)c(C(=O)O)c1O | 31.3 (≈ 109 µM) | 3.1 (≈ 10.8 µM) | 0.39 (≈ 1.35 µM) | – | – | –
21 | CCc1c(-c2ccc(N3CCC(C)(CN)C3)cc2)[nH]c(=O)c(C(=O)O)c1O (stereo not drawn) | 1.6 (≈ 4.31 µM) | 6.3 (≈ 17 µM) | 0.39 (≈ 1.05 µM) | – | 4 - 8 | –
